Test systems include UO-31; U-251; KM12; CCRF-CEM; COLO 205; SR; EKVX; A549; OVCAR-3; DU-145; RXF 393; IGROV-1; MDA-N; NCI-H522; HCC 2998; 786-0; TK-10; OVCAR-4; MOLT-4; SK-MEL-28.
Common to all, as to assay: NCI-60 cell line screen, 48 h

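Following 48 hours of exposure in 96-well plates, responses at five concentrations were used to interpolate endpoints linearly. Abbreviation: GI50, concentration required for 50% inhibition of growth.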 Calls of active or inactive are those of the source. Rule as the data show it: active = GI50 up to about 1.1 µM and inactive = higher.

Turning to `COc1cccc2c1C(=O)C(=O)c1c-2oc(=O)c2cc(C)cc(OC)c12`, the GI50 was 35 µM (inactive) with UO-31; 12.8 µM (inactive) with U-251; 21.1 µM (inactive) in the experiment on KM12; 17.5 µM (inactive) in the experiment with CCRF-CEM; 67 µM (inactive) in the experiment with COLO 205; 8.91 µM (inactive) with SR. The GI50 is 22.5 µM (inactive) in the experiment with EKVX; > 75 µM (inactive) in the experiment with A549; 15.7 µM (inactive) in the experiment on OVCAR-3; 13.6 µM (inactive) in the experiment on DU-145; 19.1 µM (inactive) in the experiment on RXF 393; 16.7 µM (inactive) in the experiment on IGROV-1. In addition, the GI50 in the experiment on MDA-N is 17.5 µM (inactive); in the experiment with NCI-H522 it was 14.1 µM (inactive); in the experiment on HCC 2998, 14.5 µM (inactive); in the experiment on 786-0, 26.2 µM (inactive); in the experiment with TK-10 it was > 75 µM (inactive); in the experiment with OVCAR-4 it was 14.9 µM (inactive). Further, the GI50 in the experiment with MOLT-4 is 23 µM (inactive); with SK-MEL-28 it was 53.6 µM (inactive).

Turning to `c1ccc(-c2nnc(SCc3c[nH]c4ccccc34)n2-c2ccccc2)cc1`, the GI50 in the experiment on UO-31 is > 100 µM (inactive); in the experiment with U-251, 24.2 µM (inactive); in the experiment on KM12, 65.3 µM (inactive); in the experiment with CCRF-CEM, 25.9 µM (inactive); with COLO 205 it was > 100 µM (inactive); with SR, 11.7 µM (inactive). For the same molecule, the GI50 with EKVX was 21.8 µM (inactive); with A549, 34.4 µM (inactive); in the experiment on OVCAR-3, 40.8 µM (inactive); in the experiment on DU-145, 40.3 µM (inactive); in the experiment on RXF 393 it was 16.6 µM (inactive); in the experiment with IGROV-1, 27.2 µM (inactive). For the same molecule, the GI50 in the experiment on MDA-N was 78 µM (inactive); in the experiment on NCI-H522 it was 25.9 µM (inactive); in the experiment on HCC 2998 it was 27.4 µM (inactive); in the experiment on 786-0, 31.8 µM (inactive); with TK-10, 22.2 µM (inactive); in the experiment on OVCAR-4, 29.5 µM (inactive). Moreover, the results for the GI50 in the experiment with MOLT-4 and in the experiment with SK-MEL-28 were 8.11 µM (inactive) and 75.3 µM (inactive), respectively.

Turning to `c1ccc(CSC2(SCc3ccccc3)CCCCC2)cc1`, the GI50 with UO-31, with U-251, in the experiment on KM12, with CCRF-CEM, with COLO 205 and in the experiment with SR was > 10 µM (inactive) in each case. For the same molecule, the GI50 in the experiment on EKVX, in the experiment on A549, in the experiment with OVCAR-3, with DU-145, in the experiment on RXF 393 and in the experiment with IGROV-1 was > 10 µM (inactive) in each case. The GI50 in the experiment with MDA-N, with NCI-H522, in the experiment with HCC 2998, in the experiment with 786-0, in the experiment with TK-10 and in the experiment with OVCAR-4 was > 10 µM (inactive) throughout. The GI50 with MOLT-4 and in the experiment on SK-MEL-28 was > 10 µM (inactive) in each case.

Take `Cc1cccc(/N=N/c2c(C)nn(C(=O)CC(=O)Nc3ccccc3)c2C)c1`: the GI50 with UO-31, in the experiment with U-251, with KM12, in the experiment with CCRF-CEM, with COLO 205 and in the experiment with SR was > 100 µM (inactive) throughout. Besides, the GI50 in the experiment on EKVX, in the experiment with A549, in the experiment on OVCAR-3, with DU-145, in the experiment on RXF 393 and with IGROV-1 was > 100 µM (inactive) throughout. In addition, the GI50 in the experiment with MDA-N, in the experiment on NCI-H522, with HCC 2998, with 786-0, with TK-10 and in the experiment with OVCAR-4 was > 100 µM (inactive) each time. The GI50 in the experiment with MOLT-4 and in the experiment on SK-MEL-28 was > 100 µM (inactive) each time.

For the molecule `CCN1CCC(O)(c2ccc(Oc3ccc(Cl)cc3)cc2)C(C(=O)c2ccc(Oc3ccc(Cl)cc3)cc2)C1` (stereo not drawn), the GI50 in the experiment with UO-31 was 13.6 µM (inactive); in the experiment on U-251, > 10 µM (inactive); with KM12, 2.56 µM (inactive); with CCRF-CEM, 3.44 µM (inactive); in the experiment with COLO 205, 13.2 µM (inactive); in the experiment with SR it was 3.48 µM (inactive). In addition, the GI50 with EKVX is 16.8 µM (inactive); with A549, 6.97 µM (inactive); in the experiment on DU-145, 16.5 µM (inactive); in the experiment with RXF 393, 26.2 µM (inactive); in the experiment with IGROV-1 it was 8.38 µM (inactive); in the experiment on MDA-N, 14 µM (inactive). The GI50 was 2.83 µM (inactive) in the experiment on NCI-H522; 12.5 µM (inactive) in the experiment with HCC 2998; 3.55 µM (inactive) in the experiment on 786-0; 10.6 µM (inactive) with TK-10; 14.3 µM (inactive) in the experiment on OVCAR-4; 8.45 µM (inactive) in the experiment on MOLT-4. Also, the GI50 in the experiment on SK-MEL-28 is 20.5 µM (inactive).

For the molecule `O=[N+]([O-])C(=C1NCCN1)/C(Cl)=C(\Cl)Br`, the GI50 in the experiment on UO-31 is 84.1 µM (inactive); in the experiment with U-251 it was 49.3 µM (inactive); with KM12, > 100 µM (inactive); in the experiment on CCRF-CEM, 7.1 µM (inactive); with COLO 205 it was 19.6 µM (inactive); in the experiment on SR it was 21.5 µM (inactive). For the same molecule, the GI50 is > 43.4 µM (inactive) with EKVX; > 100 µM (inactive) in the experiment on A549; 18 µM (inactive) with OVCAR-3; > 100 µM (inactive) with DU-145; 14.1 µM (inactive) in the experiment with RXF 393; 52.2 µM (inactive) in the experiment with IGROV-1. The GI50 with MDA-N is 34.5 µM (inactive); with NCI-H522 it was 19.1 µM (inactive); with HCC 2998, 60 µM (inactive); in the experiment on 786-0, 17.6 µM (inactive); in the experiment on TK-10, > 72.4 µM (inactive); with OVCAR-4, 46.5 µM (inactive). Moreover, the GI50 is 22.3 µM (inactive) in the experiment with MOLT-4 and 32 µM (inactive) with SK-MEL-28.

For `CCN(CC)Cc1cc(Nc2ccnc3ccc4c(nnn4C)c23)ccc1O`, the GI50 with UO-31 is 6.62 µM (inactive); in the experiment on KM12 it was 14.9 µM (inactive); in the experiment with CCRF-CEM, 5.06 µM (inactive); in the experiment on COLO 205, 6.7 µM (inactive); with SR, 4.13 µM (inactive); with EKVX, 26.7 µM (inactive). Further, the GI50 is 12.2 µM (inactive) in the experiment with A549; 19.3 µM (inactive) in the experiment on OVCAR-3; 13.3 µM (inactive) in the experiment with DU-145; 11.5 µM (inactive) with RXF 393; 15.4 µM (inactive) in the experiment with IGROV-1; 11.5 µM (inactive) in the experiment on MDA-N. Further, the GI50 in the experiment with NCI-H522 was 16.2 µM (inactive); with HCC 2998, 1.75 µM (inactive); in the experiment on 786-0 it was 7.14 µM (inactive); with TK-10 it was 21.5 µM (inactive); with OVCAR-4, 7.6 µM (inactive); in the experiment on MOLT-4 it was 3.86 µM (inactive). Further, the GI50 in the experiment on SK-MEL-28 is 3.98 µM (inactive).

`COCC12CCC(OC)C34C5CC6(O)C(OC)CC(OC(C)=O)(C5C6OC(=O)c5ccccc5)C(C(OC)C13)C4N(C)C2` (stereo not drawn): the GI50 in the experiment on UO-31 is > 100 µM (inactive); in the experiment on U-251 it was > 100 µM (inactive); with KM12, > 100 µM (inactive); with CCRF-CEM, > 100 µM (inactive); with COLO 205 it was > 100 µM (inactive); in the experiment with SR, 85.3 µM (inactive). In addition, the GI50 in the experiment on EKVX, in the experiment on A549, with OVCAR-3, in the experiment on DU-145, in the experiment on RXF 393 and in the experiment on IGROV-1 was > 100 µM (inactive) each time. The GI50 with MDA-N, in the experiment with NCI-H522, with HCC 2998, in the experiment with 786-0, with TK-10 and with OVCAR-4 was > 100 µM (inactive) each time. The GI50 with MOLT-4 and in the experiment on SK-MEL-28 was > 100 µM (inactive) throughout.

With `COc1cc(Cn2c(=S)ss/c2=N\C(=S)N(C)C)cc(OC)c1OC`, the GI50 with UO-31 was 24.3 µM (inactive); with U-251, 4.61 µM (inactive); with KM12 it was 2.64 µM (inactive); in the experiment on CCRF-CEM it was 4.32 µM (inactive); in the experiment with COLO 205, 9.33 µM (inactive); in the experiment on SR it was 3.42 µM (inactive). Moreover, the GI50 with EKVX is > 81.5 µM (inactive); in the experiment with A549, 13.2 µM (inactive); in the experiment on OVCAR-3, 1.89 µM (inactive); in the experiment with DU-145, > 28.5 µM (inactive); in the experiment with RXF 393, 2.79 µM (inactive); in the experiment with IGROV-1, 17.2 µM (inactive). Moreover, the GI50 with MDA-N was 1.1 µM (active); in the experiment on NCI-H522, 2.3 µM (inactive); in the experiment with HCC 2998, 49.1 µM (inactive); in the experiment on 786-0, 7.36 µM (inactive); with TK-10, 34.8 µM (inactive); with OVCAR-4, 48.4 µM (inactive). Further, the figures for the GI50 in the experiment on MOLT-4 and with SK-MEL-28 were 8.91 µM (inactive) and 10 µM (inactive), respectively.

In the case of `COc1cccc2c1C(=O)c1c(O)c3c(c(O)c1C2=O)CC(O)(C(O)CO)CC3OC1CC2C(OC3COCC(C#N)N32)C(C)O1` (stereo not drawn), the GI50 in the experiment with UO-31, in the experiment with U-251, in the experiment with KM12, in the experiment with CCRF-CEM, with COLO 205 and in the experiment with SR was < 0.01 µM (active) throughout. For the same molecule, the GI50 in the experiment with EKVX, with A549, in the experiment with OVCAR-3, in the experiment on DU-145, in the experiment with RXF 393 and in the experiment with IGROV-1 was < 0.01 µM (active) in each case. The GI50 with MDA-N, in the experiment with NCI-H522, with HCC 2998, in the experiment with 786-0, in the experiment on TK-10 and in the experiment on OVCAR-4 was < 0.01 µM (active) in each case. Moreover, the GI50 in the experiment on MOLT-4 and in the experiment on SK-MEL-28 was < 0.01 µM (active) throughout.
